# Where a SMILES comes first, the peptide text is derived from it.
# Assays:
# E. coli 25922 = type: cell-based, Escherichia coli; conditions: 25922, 24 h
# Procedure: (§1) The antibacterial activity of the peptides was measured using a method adopted from the Clinical Laboratory Standards Institute (CLSI), with modifications. 50 μL bacterial cells solution with 1000-fold of OD600 = 0.4 was mixed with 50 μL of each peptide of various concentration ranged from 2 to 64 μM dissolved in BSA (0.2% with 0.01% acetic acid) and incubated in sterile 96-well plates at 37°C for 24 h. The MICs were calculated as the lowest concentration of peptide with no microbial growth being observed. Broth with microbial cells and uninoculated broth were used as positive control and negative control, respectively. The tests were performed at least three times.
# E. coli UB 1005 = test: MIC measurement (modified CLSI broth microdilution); type: cell-based, Escherichia coli; conditions: peptide 2-64 μM in 0.2% BSA with 0.01% acetic acid, 37°C, 24 h, at least three times
# Procedure: as §1
# P. aeruginosa 27853 = type: cell-based, Pseudomonas aeruginosa; conditions: 27853, 24 h
# Procedure: as §1
# S. epidermidis 12228 = type: cell-based, Staphylococcus epidermidis; conditions: 12228, 24 h
# Procedure: as §1
# S. aureus 29213 = type: cell-based, Staphylococcus aureus; conditions: 29213, 24 h
# Procedure: as §1
# MRSA* 43300 = type: cell-based, methicillin-resistant Staphylococcus aureus; conditions: * 43300, 24 h
# Procedure: as §1
# L. rhamnosus 1.0385 = type: cell-based, Lactobacillus rhamnosus; conditions: 24 h
# Procedure: as §1
# L. rhamnosus 1.0386 = type: cell-based, Lactobacillus rhamnosus; conditions: 24 h
# Procedure: as §1
# L. rhamnosus 1.0911 = type: cell-based, Lactobacillus rhamnosus; conditions: 24 h
# Procedure: as §1
# L. rhamnosus 1.9025 = type: cell-based, Lactobacillus rhamnosus; conditions: 24 h
# Procedure: as §1
# L. rhamnosus 7469 = type: cell-based, Lactobacillus rhamnosus; conditions: 24 h
# Procedure: as §1
# L. plantarum 8014 = type: cell-based; conditions: 24 h
# Procedure: as §1
SMILES,MIC E. coli 25922 (E. coli 25922),MIC E. coli UB 1005 (E. coli UB 1005),MIC P. aeruginosa 27853 (P. aeruginosa 27853),MIC S. epidermidis 12228 (S. epidermidis 12228),MIC S. aureus 29213 (S. aureus 29213),MIC MRSA* 43300 (MRSA* 43300),MIC L. rhamnosus 1.0385 (L. rhamnosus 1.0385),MIC L. rhamnosus 1.0386 (L. rhamnosus 1.0386),MIC L. rhamnosus 1.0911 (L. rhamnosus 1.0911),MIC L. rhamnosus 1.9025 (L. rhamnosus 1.9025),MIC L. rhamnosus 7469 (L. rhamnosus 7469),MIC L. plantarum 8014 (L. plantarum 8014)
N=C(N)NCCC[C@H](NC(=O)[C@H](CCCNC(=N)N)NC(=O)[C@H](Cc1c[nH]c2ccccc12)NC(=O)[C@H](CS)NC(=O)[C@H](Cc1c[nH]c2ccccc12)NC(=O)[C@H](Cc1c[nH]c2ccccc12)NC(=O)[C@H](Cc1c[nH]c2ccccc12)NC(=O)[C@H](CS)NC(=O)[C@H](Cc1c[nH]c2ccccc12)NC(=O)[C@H](CCCNC(=N)N)NC(=O)[C@@H](N)CCCNC(=N)N)C(N)=O [Peptide S1] (H-RRWCWWWCWRR-NH2; N-terminus assumed),>64 μ M,16 μ M,8 μ M,8 μ M,8 μ M,4 μ M,16 μ M,>64 μ M,>64 μ M,>64 μ M,>64 μ M,8 μ M
N=C(N)NCCC[C@H](NC(=O)[C@H](CCCNC(=N)N)NC(=O)[C@H](Cc1c[nH]c2ccccc12)NC(=O)[C@H](Cc1ccc(O)cc1)NC(=O)[C@H](Cc1c[nH]c2ccccc12)NC(=O)[C@H](Cc1c[nH]c2ccccc12)NC(=O)[C@H](Cc1c[nH]c2ccccc12)NC(=O)[C@H](Cc1ccc(O)cc1)NC(=O)[C@H](Cc1c[nH]c2ccccc12)NC(=O)[C@H](CCCNC(=N)N)NC(=O)[C@@H](N)CCCNC(=N)N)C(N)=O [Peptide S2] (H-RRWYWWWYWRR-NH2),32 μ M,32 μ M,8 μ M,8 μ M,8 μ M,8 μ M,16 μ M,16 μ M,>64 μ M,>64 μ M,>64 μ M,4 μ M
N=C(N)NCCC[C@H](NC(=O)[C@H](CCCNC(=N)N)NC(=O)[C@H](Cc1c[nH]c2ccccc12)NC(=O)[C@H](CC(N)=O)NC(=O)[C@H](Cc1c[nH]c2ccccc12)NC(=O)[C@H](Cc1c[nH]c2ccccc12)NC(=O)[C@H](Cc1c[nH]c2ccccc12)NC(=O)[C@H](CC(N)=O)NC(=O)[C@H](Cc1c[nH]c2ccccc12)NC(=O)[C@H](CCCNC(=N)N)NC(=O)[C@@H](N)CCCNC(=N)N)C(N)=O [Peptide S3] (H-RRWNWWWNWRR-NH2),>64 μ M,>64 μ M,>64 μ M,>64 μ M,>64 μ M,>64 μ M,>64 μ M,>64 μ M,>64 μ M,>64 μ M,>64 μ M,>64 μ M
N=C(N)NCCC[C@H](NC(=O)[C@H](CCCNC(=N)N)NC(=O)[C@H](Cc1c[nH]c2ccccc12)NC(=O)[C@H](CCC(N)=O)NC(=O)[C@H](Cc1c[nH]c2ccccc12)NC(=O)[C@H](Cc1c[nH]c2ccccc12)NC(=O)[C@H](Cc1c[nH]c2ccccc12)NC(=O)[C@H](CCC(N)=O)NC(=O)[C@H](Cc1c[nH]c2ccccc12)NC(=O)[C@H](CCCNC(=N)N)NC(=O)[C@@H](N)CCCNC(=N)N)C(N)=O [Peptide S4] (H-RRWQWWWQWRR-NH2),4 μ M,4 μ M,4 μ M,4 μ M,4 μ M,4 μ M,16 μ M,64 μ M,>64 μ M,>64 μ M,>64 μ M,8 μ M

# — PMC7160233, “Peptides With Triplet-Tryptophan-Pivot Promoted Pathogenic Bacteria Membrane Defects” (Frontiers in Microbiology, 2020)
